Test system: immature maize embryos (variety: A188)
Assay: Effect of auxin in coculture medium on regeneration and GUS gene expression in whole plants regenerated without selection from Agrobacterium-inoculated immature maize embryos
Assay type: cell-based
Conditions: for Number of immature embryos found to regenerate into whole plants on LSZ medium / Number of immature embryos with at least one leaf piece showing GUS gene expression / Number of immature embryos whose leaf pieces were all GUS-negative: auxin 6.8 μM in coculture medium, 24 immature embryos per auxin; for Number of immature embryos found to regenerate into whole plants on LSZ medium: Agrobacterium LBA4404 (pSB124); for Percentage of regenerated plants showing expression of the transgene (in words) / Efficiency of regeneration into whole plants (in words): comparison of auxins in coculture medium
Protocol: Maize (variety: A188) immature embryos (1.0 to 1.5 mm in size) at 7 to 14 days after pollination were aseptically collected and washed once with LS-inf liquid medium, followed by pretreatment (thermal treatment at 46° C. for 3 minutes) to increase gene transfer efficiency for transformation enhancement. In LS-inf liquid medium containing 100 μM acetosyringone, Agrobacterium strain LBA4404 (pSB124) (Komari et al., 1996) was suspended to prepare an inoculum.
The thermally-treated immature embryos were mixed with the inoculum, vortexed for 30 seconds, and then allowed to stand for 5 minutes at room temperature. The Agrobacterium-inoculated immature embryos (24 in total) were placed, with their scutella facing up, onto a coculture medium containing dicamba (3,6-dichloro-o-anisic acid) or picloram (4-amino-3,5,6-trichloropicolinic acid) at a concentration of 6.8 μM in LS-AS medium (Ishida et al. 1996; solidified with 8 g/l agarose) which had been prepared to exclude 2,4-D (2,4-dichlorophenoxyacetic acid) and contain 5 μM AgNO3 and 5 μM CuSO4.
On the other hand, LS-AS medium containing 5 μM AgNO3 and 5 μM CuSO4 was supplemented with 1.5 mg/l (6.8 μM) 2,4-D as an auxin member and also used for testing, 24 immature embryos were placed onto this medium.
The immature embryos cultured in the dark at 25° C. for 7 days were placed onto LSZ medium (Ishida et ai., 1996) containing 10 μM CuSO4, and then cultured in the light at 25° C. for about 2 weeks. Leaves of the regenerated whole plants were partially excised and immersed in 0.1 M phosphate buffer (pH 6.8) containing 0.1% Triton X-100 and then allowed to stand at 37° C. for 1 hour. The phosphate buffer was removed and replaced by another phosphate buffer containing 1.0 mM 5-bromo-4-chloro-3-indolyl-β-D-glucuronic acid (X-gluc) and 20% methanol. After treatment at 37° C. for 24 hours, GUS gene expression was analyzed.

`O=C(O)COc1ccc(Cl)cc1Cl` [2,4-D, 2,4-dichlorophenoxyacetic acid] was tested, and the “Number of immature embryos found to regenerate into whole plants on LSZ medium” value (from here on “Number of immature embryos found”) (no selection) was 21, the “Number of immature embryos with at least one leaf piece showing GUS gene expression” value (no selection) was 4 and the “Number of immature embryos that did not regenerate into plants on LSZ medium” value (auxin 1.5 mg/l (6.8 μM) in coculture medium, 24 immature embryos, no selection) was 3. For the same compound, the “Percentage of regenerated plants showing expression of the transgene (in words)” value (“Percentage” for short) was “slightly lower”.
With `COc1c(Cl)ccc(Cl)c1C(=O)O` [dicamba, 3,6-dichloro-o-anisic acid] the “Number of immature embryos found” value (no selection) was 24, the “Number of immature embryos whose leaf pieces were all GUS-negative” value (no selection) was 13 and the “Number of immature embryos with at least one leaf piece showing GUS gene expression” value (no selection) was 11. For the same compound, the “Efficiency of regeneration into whole plants (in words)” value was “higher efficiency” and the “Percentage” value was “increased percentage”.
In the case of `Nc1c(Cl)c(Cl)nc(C(=O)O)c1Cl` [picloram, 4-amino-3,5,6-trichloropicolinic acid], the “Number of immature embryos found” value (no selection) is reported as “All of the immature embryos”, the “Number of immature embryos whose leaf pieces were all GUS-negative” value (no selection) is reported as 15 and the “Number of immature embryos with at least one leaf piece showing GUS gene expression” value (no selection) is reported as 9. The “Efficiency of regeneration into whole plants (in words)” value was “higher efficiency” and the “Percentage” value was “increased percentage”.

Reference: US20130125265A1, “AGROBACTERIUM-MEDIATED METHOD FOR PRODUCING TRANSFORMED PLANT” (JAPAN TOBACCO INC., priority 2008, published 2013)
